Tests used:
Experiment in all cases: relative viability (nuclei count vs DMSO), 5 days (fraction); higher = more cells survive
A-427 = tested on: A-427
How it was run: (§1)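 Five library-drug doses in √10 steps were combined with a fixed anchor-drug dose, or a single drug was given alone, by pin tool to lung cancer cell lines in 1536-well plates the day after seeding. Nuclei were stained and counted after 5 days. Relative viability is the nuclei count in treated wells over that in vehicle wells, taken as the median of duplicate plates.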

NCI-H727 = tested on: NCI-H727
How it was run: as §1

LU99A = tested on: LU99A
How it was run: as §1

EKVX = tested on: EKVX
How it was run: as §1

PC-14 = tested on: PC-14
How it was run: as §1

NCI-H322M = tested on: NCI-H322M
How it was run: as §1

NCI-H1793 = tested on: NCI-H1793
How it was run: as §1

NCI-H1666 = tested on: NCI-H1666
How it was run: as §1

LOU-NH91 = tested on: LOU-NH91
How it was run: as §1

NCI-H1944 = tested on: NCI-H1944
How it was run: as §1

HARA = tested on: HARA
How it was run: as §1

PC-3 [JPC-3] = tested on: PC-3 [JPC-3]
How it was run: as §1

NCI-H3122 = tested on: NCI-H3122
How it was run: as §1

NCI-H2170 = tested on: NCI-H2170
How it was run: as §1

LCLC-103H = tested on: LCLC-103H
How it was run: as §1

NCI-H1915 = tested on: NCI-H1915
How it was run: as §1

BEN = tested on: BEN
How it was run: as §1

LC-2-ad = tested on: LC-2-ad
How it was run: as §1

NCI-H2087 = tested on: NCI-H2087
How it was run: as §1

SMILES: Oc1nc(-c2ccc(C(F)(F)F)cc2)nc2c1CSCC2 [XAV939] + NC(=O)Nc1cc(-c2cccc(F)c2)sc1C(=O)N[C@H]1CCCNC1 [AZD7762] (partner 0.2 µM)
- relative viability (A-427; first compound 0.08 µM): 0.816
- relative viability (A-427; first compound 0.253 µM): 0.684
- relative viability (A-427; first compound 0.8 µM): 0.706
- relative viability (A-427; first compound 2.53 µM): 0.696
- relative viability (NCI-H727; first compound 0.08 µM): 0.514
- relative viability (NCI-H727; first compound 0.8 µM): 0.626
- relative viability (NCI-H727; first compound 2.53 µM): 0.783
- relative viability (LU99A; first compound 0.08 µM): 0.495
- relative viability (LU99A; first compound 0.253 µM): 0.394
- relative viability (LU99A; first compound 0.8 µM): 0.339
- relative viability (LU99A; first compound 2.53 µM): 0.32
- relative viability (EKVX; first compound 0.08 µM): 0.685
- relative viability (EKVX; first compound 0.253 µM): 0.646
- relative viability (EKVX; first compound 0.8 µM): 0.362
- relative viability (EKVX; first compound 2.53 µM): 0.56
- relative viability (PC-14; first compound 0.08 µM): 0.352
- relative viability (PC-14; first compound 0.253 µM): 0.333
- relative viability (PC-14; first compound 0.8 µM): 0.304
- relative viability (PC-14; first compound 2.53 µM): 0.345
- relative viability (NCI-H322M; first compound 0.08 µM): 0.573
- relative viability (NCI-H322M; first compound 0.253 µM): 0.45
- relative viability (NCI-H322M; first compound 0.8 µM): 0.539
- relative viability (NCI-H322M; first compound 2.53 µM): 0.495
- relative viability (NCI-H1793; first compound 0.08 µM): 0.989
- relative viability (NCI-H1793; first compound 0.253 µM): 0.307
- relative viability (NCI-H1793; first compound 0.8 µM): 0.355
- relative viability (NCI-H1793; first compound 2.53 µM): 0.312
- relative viability (NCI-H1666; first compound 0.08 µM): 0.885
- relative viability (NCI-H1666; first compound 0.253 µM): 0.656
- relative viability (NCI-H1666; first compound 0.8 µM): 0.735
- relative viability (NCI-H1666; first compound 2.53 µM): 0.621
- relative viability (LOU-NH91; first compound 0.08 µM): 0.762
- relative viability (LOU-NH91; first compound 0.253 µM): 0.681
- relative viability (LOU-NH91; first compound 0.8 µM): 0.687
- relative viability (LOU-NH91; first compound 2.53 µM): 0.692
- relative viability (NCI-H1944; first compound 0.08 µM): 0.589
- relative viability (NCI-H1944; first compound 0.253 µM): 0.539
- relative viability (NCI-H1944; first compound 0.8 µM): 0.477
- relative viability (NCI-H1944; first compound 2.53 µM): 0.382
- relative viability (HARA; first compound 0.08 µM): 0.671
- relative viability (HARA; first compound 0.253 µM): 0.305
- relative viability (HARA; first compound 0.8 µM): 0.271
- relative viability (HARA; first compound 2.53 µM): 0.294
- relative viability (PC-3 [JPC-3]; first compound 0.253 µM): 0.691
- relative viability (PC-3 [JPC-3]; first compound 0.8 µM): 0.753
- relative viability (PC-3 [JPC-3]; first compound 2.53 µM): 0.801
- relative viability (NCI-H3122; first compound 0.08 µM): 1.01
- relative viability (NCI-H3122; first compound 0.253 µM): 0.964
- relative viability (NCI-H3122; first compound 0.8 µM): 0.9
- relative viability (NCI-H3122; first compound 2.53 µM): 0.573
- relative viability (NCI-H2170; first compound 0.08 µM): 0.867
- relative viability (NCI-H2170; first compound 0.253 µM): 0.692
- relative viability (NCI-H2170; first compound 0.8 µM): 0.823
- relative viability (NCI-H2170; first compound 2.53 µM): 0.532
- relative viability (LCLC-103H; first compound 0.08 µM): 0.869
- relative viability (LCLC-103H; first compound 0.253 µM): 0.719
- relative viability (LCLC-103H; first compound 0.8 µM): 0.792
- relative viability (LCLC-103H; first compound 2.53 µM): 0.68
- relative viability (NCI-H1915; first compound 0.08 µM): 0.898
- relative viability (NCI-H1915; first compound 0.253 µM): 0.674
- relative viability (NCI-H1915; first compound 0.8 µM): 0.693
- relative viability (NCI-H1915; first compound 2.53 µM): 0.665
- relative viability (BEN; first compound 0.08 µM): 0.629
- relative viability (BEN; first compound 0.253 µM): 0.651
- relative viability (BEN; first compound 0.8 µM): 0.619
- relative viability (BEN; first compound 2.53 µM): 0.597
- relative viability (LC-2-ad; first compound 0.08 µM): 0.865
- relative viability (LC-2-ad; first compound 0.253 µM): 0.711
- relative viability (LC-2-ad; first compound 0.8 µM): 0.806
- relative viability (LC-2-ad; first compound 2.53 µM): 0.724
- relative viability (NCI-H2087; first compound 0.08 µM): 1.29
- relative viability (NCI-H2087; first compound 0.253 µM): 1.2
- relative viability (NCI-H2087; first compound 0.8 µM): 1.22
- relative viability (NCI-H2087; first compound 2.53 µM): 1.31

SMILES: C=C1C(=O)O[C@@H](CCCCCCCC)[C@@H]1C(=O)O [C-75] + NC(=O)Nc1cc(-c2cccc(F)c2)sc1C(=O)N[C@H]1CCCNC1 [AZD7762] (partner 0.2 µM)
- relative viability (A-427; first compound 0.08 µM): 0.698
- relative viability (A-427; first compound 0.253 µM): 0.825
- relative viability (A-427; first compound 0.8 µM): 0.537
- relative viability (A-427; first compound 2.53 µM): 0.72
- relative viability (A-427; first compound 8 µM): 0.536
- relative viability (NCI-H727; first compound 0.08 µM): 0.694
- relative viability (NCI-H727; first compound 0.253 µM): 0.906
- relative viability (NCI-H727; first compound 0.8 µM): 0.4
- relative viability (NCI-H727; first compound 2.53 µM): 0.587
- relative viability (NCI-H727; first compound 8 µM): 0.388
- relative viability (LU99A; first compound 0.08 µM): 0.36
- relative viability (LU99A; first compound 0.253 µM): 0.529
- relative viability (LU99A; first compound 0.8 µM): 0.33
- relative viability (LU99A; first compound 2.53 µM): 0.284
- relative viability (LU99A; first compound 8 µM): 0.401
- relative viability (EKVX; first compound 0.08 µM): 0.683
- relative viability (EKVX; first compound 0.253 µM): 0.765
- relative viability (EKVX; first compound 0.8 µM): 0.498
- relative viability (EKVX; first compound 8 µM): 0.51
- relative viability (PC-14; first compound 0.08 µM): 0.358
- relative viability (PC-14; first compound 0.8 µM): 0.243
- relative viability (PC-14; first compound 2.53 µM): 0.328
- relative viability (PC-14; first compound 8 µM): 0.319
- relative viability (NCI-H322M; first compound 0.08 µM): 0.587
- relative viability (NCI-H322M; first compound 0.253 µM): 0.684
- relative viability (NCI-H322M; first compound 0.8 µM): 0.552
- relative viability (NCI-H322M; first compound 8 µM): 0.587
- relative viability (NCI-H1793; first compound 0.08 µM): 0.478
- relative viability (NCI-H1793; first compound 0.253 µM): 0.645
- relative viability (NCI-H1793; first compound 2.53 µM): 0.293
- relative viability (NCI-H1793; first compound 8 µM): 0.854
- relative viability (NCI-H1666; first compound 0.08 µM): 0.801
- relative viability (NCI-H1666; first compound 0.253 µM): 0.955
- relative viability (NCI-H1666; first compound 0.8 µM): 0.725
- relative viability (NCI-H1666; first compound 2.53 µM): 0.657
- relative viability (NCI-H1666; first compound 8 µM): 0.708
- relative viability (LOU-NH91; first compound 0.08 µM): 0.739
- relative viability (LOU-NH91; first compound 0.253 µM): 0.704
- relative viability (LOU-NH91; first compound 0.8 µM): 0.684
- relative viability (LOU-NH91; first compound 8 µM): 0.818
- relative viability (NCI-H1944; first compound 0.08 µM): 0.566
- relative viability (NCI-H1944; first compound 0.253 µM): 0.648
- relative viability (NCI-H1944; first compound 0.8 µM): 0.381
- relative viability (NCI-H1944; first compound 2.53 µM): 0.621
- relative viability (NCI-H1944; first compound 8 µM): 0.517
- relative viability (HARA; first compound 0.08 µM): 0.568
- relative viability (HARA; first compound 0.253 µM): 0.469
- relative viability (HARA; first compound 0.8 µM): 0.213
- relative viability (HARA; first compound 2.53 µM): 0.447
- relative viability (HARA; first compound 8 µM): 0.722
- relative viability (PC-3 [JPC-3]; first compound 0.08 µM): 0.845
- relative viability (PC-3 [JPC-3]; first compound 0.253 µM): 0.801
- relative viability (PC-3 [JPC-3]; first compound 0.8 µM): 0.801
- relative viability (PC-3 [JPC-3]; first compound 2.53 µM): 0.6
- relative viability (PC-3 [JPC-3]; first compound 8 µM): 0.753
- relative viability (NCI-H3122; first compound 0.08 µM): 1.03
- relative viability (NCI-H3122; first compound 0.253 µM): 1.09
- relative viability (NCI-H3122; first compound 0.8 µM): 0.951
- relative viability (NCI-H3122; first compound 2.53 µM): 0.883
- relative viability (NCI-H3122; first compound 8 µM): 1.03
- relative viability (NCI-H2170; first compound 0.08 µM): 0.945
- relative viability (NCI-H2170; first compound 0.253 µM): 1.1
- relative viability (NCI-H2170; first compound 0.8 µM): 0.858
- relative viability (NCI-H2170; first compound 2.53 µM): 0.737
- relative viability (NCI-H2170; first compound 8 µM): 0.887
- relative viability (LCLC-103H; first compound 0.08 µM): 0.809
- relative viability (LCLC-103H; first compound 0.253 µM): 0.619
- relative viability (LCLC-103H; first compound 0.8 µM): 0.695
- relative viability (LCLC-103H; first compound 2.53 µM): 0.654
- relative viability (LCLC-103H; first compound 8 µM): 0.814
- relative viability (NCI-H1915; first compound 0.08 µM): 0.716
- relative viability (NCI-H1915; first compound 0.253 µM): 0.683
- relative viability (NCI-H1915; first compound 0.8 µM): 0.739
- relative viability (NCI-H1915; first compound 2.53 µM): 0.621
- relative viability (NCI-H1915; first compound 8 µM): 0.79
- relative viability (BEN; first compound 0.08 µM): 0.676
- relative viability (BEN; first compound 0.253 µM): 0.729
- relative viability (BEN; first compound 0.8 µM): 0.589
- relative viability (BEN; first compound 2.53 µM): 0.633
- relative viability (BEN; first compound 8 µM): 0.627
- relative viability (LC-2-ad; first compound 0.08 µM): 0.833
- relative viability (LC-2-ad; first compound 0.253 µM): 0.813
- relative viability (LC-2-ad; first compound 0.8 µM): 0.819
- relative viability (LC-2-ad; first compound 2.53 µM): 0.728
- relative viability (LC-2-ad; first compound 8 µM): 0.853
- relative viability (NCI-H2087; first compound 0.08 µM): 1.59
- relative viability (NCI-H2087; first compound 0.253 µM): 1.23
- relative viability (NCI-H2087; first compound 0.8 µM): 1.07
- relative viability (NCI-H2087; first compound 2.53 µM): 1.3
- relative viability (NCI-H2087; first compound 8 µM): 1.09
